Measurements reported in PMC11679033, “Assessing the Potential Synergistic/Antagonistic Effects of Citrinin and Cannabidiol on SH-SY5Y, HepG2, HEK293 Cell Lines, and Human Lymphocytes” (Toxins, 2024).
Where “and” joins values, the source holds several entries; their conditions need not be identical. Identical values can stand only once.

Experiments:
HEK293 cells = experiment: MTS viability assay, HEK293; assay type: cell-based, human; settings: HEK293, 24 h; for cell viability at LOAEL concentrations: CBD 2 μM, CIT 0.05 μM, alone or combined
Method: (§1) Human neuroblastoma SH-SY5Y cells (ECACC 94030304), human hepatocyte carcinoma HepG2 (ECACC 85011430) and human embryonic kidney HEK293 (ECACC 85120602) used in the experiments were obtained from the European Collection of Authenticated Cell Cultures (ECACC) through Sigma-Aldrich (Steinheim, Germany). SH-SY5Y cells were grown in Dulbecco’s Modified Eagle’s Medium F12 containing 15% (v/v) fetal bovine serum (FBS), 2 mM glutamine, 1% (v/v) penicillin/streptomycin (PenStrep solution), and 1% (v/v) non-essential amino acids (NEAA solution). HEK293 and HepG2 cells were grown in EMEM medium (Sigma-Aldrich, Steinheim, Germany) supplemented with 10% (v/v) FBS, 2 mM glutamine, 1% (v/v) PenStrep and 1% (v/v) NEAA. All media and supplements were purchased from Sigma-Aldrich, Steinheim, Germany. Cells were cultured at 37 °C in a 5% CO2 atmosphere, the medium was changed every two days, and passage was carried out according to the manufacturer’s protocol.
(§2) MTS assay (CellTiter 96® AQueous One Solution Cell Proliferation Assay, Promega, Madison, WI, USA) was used to determine the viability of cells/cytotoxic properties of tested compounds by measuring cells’ mitochondrial succinate dehydrogenase activity. The procedure followed a previously described protocol. In brief, the cells were seeded in transparent 96-well plates at a density of 20,000 cells/well one day before the experiment and treated with tested compounds in concentrations: 0.01, 0.1, 0.5, 1, 2, 5, 10, 25, 50, 100 and 300 µM. Triton X-100 at a final concentration of 0.18% (v/v) (stock of 9% in water; Sigma-Aldrich, Steinheim, Germany) was used as a positive control. After 24 h, treatment with tested compounds and incubation with MTS reagent, the absorbance was read at 492 nm on an Infinite M200PRO (Tecan Group Ltd., Männedorf, Switzerland) plate reader. Data were taken from at least three independent experiments (each treatment performed in duplicate or triplicate) and expressed as percentages (mean ± standard error) of viable cells compared to control (untreated) cells. IC50 values were determined by a nonlinear fit equation predefined in Prism software 8 (GraphPad Software, San Diego, CA, USA).
(§3) The same method was used to evaluate a potential toxic synergistic effect on cells exposed to a combination of CBD and CIT at approximately LOAEL doses (lowest observed adverse effect level, 1 and 30 μM for SH-SY5Y and HepG2, and 2 and 0.05 μM for HEK293, respectively). There is no official recommendation for CBD oral use, but according to the available literature, we used a dose that corresponded to daily intake, which was 10 mg/kg/day (calculated on a person of 70 kg ~ 1 μM). These selected LOAEL concentrations were used for all other assays as well.

[1] = MTS viability assay, HEK293; assay type: cell-based, human; settings: human, HEK293 cells; HEK293, 24 h exposure, MTS; read-out: IC50 (cytotoxicity)
Method: as §1, §2, §3

A549 cells = tested on: A549 cells; design: method as in PMID 39057961; settings: A549, 24 h, sub-IC50 and near IC50 concentrations; cited from earlier work
SH-SY5Y cells = experiment: MTS viability assay, SH-SY5Y; assay type: cell-based, human; settings: for IC20: Homo sapiens, established on SH-SY5Y and HepG2 cell models, read-out: IC20 concentration; for lowest observed adverse effect level (LOAEL), approximate / cell viability at LOAEL concentrations: SH-SY5Y, 24 h; for cell viability at LOAEL concentrations: CBD 1 μM, CIT 30 μM, alone or combined
Method: as §1, §2, §3

[2] = MTS viability assay, SH-SY5Y; assay type: cell-based, human; settings: human, SH-SY5Y cells; SH-SY5Y, 24 h exposure, MTS; read-out: IC50 (cytotoxicity)
Method: as §1, §2, §3

[3] = tested on: human peripheral blood lymphocytes; experiment: Lymphocyte proliferation / cytotoxicity (CBPI, RI); assay type: cell-based; settings: 24 h, citrinin 7.50 µg/mL, CBD 3.15 µg/mL, bleomycin 1.25 µg/mL; for Cytokinesis-Block Proliferation Index: 3000 cells scored; for Replication Index (%): relative to negative control
Text: (§4) On the same slides, parameters of cell proliferation, cytostasis and cytotoxicity were studied, according to recommendations by OECD 2023 [67]. For that purpose, the numbers of mono-, bi-, tri-, and quadrinuclear cells (i.e., M1, M2, M3, M4) were scored at 400× magnification using a light microscope (Leitz, Oberkochen, Germany). The total number of M1 to M4 cells counted per experimental group was 3000 (i.e., 6 × 500 cells).
(§5) Based on the scored ratios of M1 to M4 cells, the Cytokinesis-Block Proliferation Index (CBPI) was calculated, using the formula: CBPI = [(No. of mononucleated cells) + (2 × No. of binucleated cells) + (3 × No. of multinucleated cells)]/(Total number of cells).
(§6) To establish the relative number of cell cycles per cell during the period of exposure to cytoB in treated compared to control cultures, the Replication Index (RI) was also calculated according to the formula:RI = {[(<No. binucleated cells> + <2 × No. multinucleated cells>)/(Total number of cells in treated culture)]/[(<No. binucleated cells> + <2 × No. multinucleated cells>) […] (Total number of cells in control culture)]} × 100
(§7) Finally, from the obtained values of RI, the cytotoxicity estimate was deduced, as % Cytotoxicity = […].

[4] = Lymphocyte proliferation / cytotoxicity (CBPI, RI); assay type: cell-based, human; settings: human, citrinin 7.50 µg/mL, CBD 3.15 µg/mL, bleomycin 1.25 µg/mL, deduced from RI
Text: as §4, §5, §6, §7

HepG2 cells = experiment: Cell membrane integrity (LDH release), HepG2; assay type: cell-based, human; settings: HepG2, 24 h; CBD 1 μM, CIT 30 μM, alone or combined
Method: Cell membrane integrity was determined after exposure to compounds’ concentrations corresponding to LOAEL concentrations in 24 h by measuring the release of the intracellular lactate dehydrogenase (LDH) and the procedure followed a previously described protocol using The CytoTox-ONE™ Homogeneous Membrane Integrity Assay (Promega, Madison, WI, USA). In short, the cells were seeded in black 96-well plates at a density of 10,000 cells/well one day before the experiment and treated with selected LOAEL concentrations. Triton X-100 at a final concentration of 0.18% (v/v) (stock of 9% in water) was used as a positive control to determine the maximal LDH release. Data were taken from at least two independent experiments (each treatment performed in duplicate or triplicate) and plotted as a percentage of LDH release compared to the determined maximal LDH release, according to the manufacturer’s calculation protocol.

[5] = design: method as in PMID 38908200; settings: 24 h exposure to CBD samples; cited from earlier work
human TK6 cells = tested on: human TK6 cells; design: method as in PMID 37105391; settings: up to 10–11 μg/mL, with and without metabolic activation; cited from earlier work

Compound | IC50 fold lower than that of CBD (HEK293 cells) [fold] | lowest observed adverse effect level (LOAEL), approximate (HEK293 cells) [µM] | cell viability at LOAEL concentrations (HEK293 cells) | IC50 at 24 h [1] [µM] | DNA damage in comet assay (A549 cells) | IC20 (SH-SY5Y cells) | lowest observed adverse effect level (LOAEL), approximate (SH-SY5Y cells) | cell viability at LOAEL concentrations (SH-SY5Y cells) | IC50 at 24 h [2] [µM] | Cytokinesis-Block Proliferation Index [3] | Replication Index (%) [3] [%] | cytotoxicity at 24 h [4] [%] | cell membrane integrity (LDH release) (HepG2 cells) | genomic instability estimated by CBMN Cyt Assay [5] | genotoxic hazard (human TK6 cells)
CC1=C2C(=CO[C@H](C)[C@H]2C)C(O)=C(C(=O)O)C1=O [CIT, citrinin] | 11 | ~0.05 | did not independently impact cell viability | 0.44 ± 0.02 | induced significant DNA damage | 30 µM and 7.5 µg/mL | ~30 µM | did not independently impact cell viability | 52 ± 8 | 1.83^↓nc, sc, cbd, & | 83.46 | 16.5 | not significantly compromised |  | 
C=C(C)[C@@H]1CCC(C)=C[C@H]1c1c(O)cc(CCCCC)cc1O [CBD, cannabidiol] |  | ~2 | did not independently impact cell viability | 5 ± 1 |  | 1 µM and 3.15 µg/mL | ~ 1 μM | did not independently impact cell viability | 13 ± 2 | 1.96^↓nc, sc | 97.14 | 2.86 | not significantly compromised | no changes in genomic instability | did not pose a genotoxic hazard
